This series addresses T1, hERG potassium channel (Homo sapiens, UniProt Q12809).
T1 construct: host or cells: HEK-293
In words: hERG manual patch-clamp assay in HEK-293 cells. It counts as cell-based. To be noted: HEK-293 cells stably expressing the hERG potassium channel, HEK-293 cells stably expressing hERG. The text has this:
This experiment was a non-GLP trial conducted with reference to GLP guidelines and in accordance with the following technical guidelines: National Medical Products Administration: Technical Guidelines for Non-Clinical Studies of Potential Effects of Drugs on QT Interval Prolongation (2014), and ICH S7B Guidelines for Non-Clinical Evaluation of Potential Drug-Induced Delayed Ventricular Repolarization (QT Interval Prolongation) in Humans (2005).
Sample preparation: the weighed test substance was prepared into a 5 mM or 10 mM stock solution with DMSO, then diluted with DMSO to a 3.33 mM diluent. The stock solution was then diluted with extracellular fluid to prepare a 10 µM working solution, ensuring a DMSO concentration of 0.3%. The solution was sonicated for 20 min. The solubility of the test sample was visually inspected; all concentrations dissolved completely without any visible precipitate.
Preparation of positive control: 3.99 mg Cisapride (positive control) was prepared into a 10 mM stock solution using 807.96 µL DMSO. This stock solution was then successively diluted with DMSO to 1000, 333.33, 33.33, 3.33, and 0.33 µM dilutions. Before testing, 30 µL of each of the last four dilutions was added to 10 mL of extracellular fluid, ensuring a DMSO concentration of 0.3%. The final working solution concentrations of Cisapride were 1000, 100, 10, and 1 nM. Cisapride was visually inspected for solubility; all concentrations dissolved completely without any visible precipitate.
The blank control stock solution (DMSO) should be stored at room temperature. The blank control working solution should be prepared on the same day and stored at room temperature. The test substance and positive control stock solutions should be stored at -20 °C. […]
The hERG activity of the representative compounds of this disclosure was detected using conventional manual patch-clamp techniques in the art (Patch-Clamp Methods and Protocols, 2014, 2nd edition, Humana Press, edited by Marzia Martina and Stefano Taverna).
A general note: The hERG channel carries a current that helps repolarise heart muscle cells.

T1 sequence (Q12809 whole entry): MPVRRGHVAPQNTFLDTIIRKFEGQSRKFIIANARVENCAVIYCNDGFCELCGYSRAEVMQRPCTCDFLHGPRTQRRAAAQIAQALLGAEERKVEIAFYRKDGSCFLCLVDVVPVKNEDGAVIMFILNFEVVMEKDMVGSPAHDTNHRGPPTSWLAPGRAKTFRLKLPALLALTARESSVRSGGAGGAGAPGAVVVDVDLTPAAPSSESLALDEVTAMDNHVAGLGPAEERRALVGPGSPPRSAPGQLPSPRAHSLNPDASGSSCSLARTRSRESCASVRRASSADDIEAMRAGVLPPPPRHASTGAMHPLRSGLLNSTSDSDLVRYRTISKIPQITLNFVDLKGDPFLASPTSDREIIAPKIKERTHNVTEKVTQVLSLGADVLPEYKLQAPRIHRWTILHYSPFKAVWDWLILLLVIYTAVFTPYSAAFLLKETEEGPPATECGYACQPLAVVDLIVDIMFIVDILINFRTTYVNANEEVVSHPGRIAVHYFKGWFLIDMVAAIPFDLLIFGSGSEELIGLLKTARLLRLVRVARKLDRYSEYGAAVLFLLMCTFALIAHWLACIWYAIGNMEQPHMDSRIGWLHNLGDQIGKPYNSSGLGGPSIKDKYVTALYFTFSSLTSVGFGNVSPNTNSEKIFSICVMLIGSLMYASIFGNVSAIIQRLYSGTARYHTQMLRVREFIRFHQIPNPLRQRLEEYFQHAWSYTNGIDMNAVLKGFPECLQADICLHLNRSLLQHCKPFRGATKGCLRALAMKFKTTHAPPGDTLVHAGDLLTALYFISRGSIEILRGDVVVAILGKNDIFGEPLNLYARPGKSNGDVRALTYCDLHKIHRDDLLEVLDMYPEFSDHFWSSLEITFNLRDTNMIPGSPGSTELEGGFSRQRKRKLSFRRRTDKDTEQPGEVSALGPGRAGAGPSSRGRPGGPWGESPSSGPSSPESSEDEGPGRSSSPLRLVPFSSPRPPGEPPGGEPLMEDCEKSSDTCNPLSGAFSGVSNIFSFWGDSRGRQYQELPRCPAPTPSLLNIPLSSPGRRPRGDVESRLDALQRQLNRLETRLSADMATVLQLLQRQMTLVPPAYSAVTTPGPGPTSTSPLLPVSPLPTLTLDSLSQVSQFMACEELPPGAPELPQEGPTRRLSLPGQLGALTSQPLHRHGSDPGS

In the case of `CC1(n2c(-c3ccc(NC(=O)C(=O)Nc4ccc(N5CCC6(CCOC6)CC5)cc4)cc3)cc3cc(F)c(-c4nnn[nH]4)cc32)CCC1` [Example 68], the inhibition at 10 µM came to 8.79%.

Regarding `O=C(Nc1ccc(-c2cc3cc(F)c(-c4nnn[nH]4)cc3n2C2CCC2)cc1)C(=O)Nc1ccc(N2CCC(CO)CC2)cc1` [Example 23], the inhibition at 10 µM was -0.72%.

For the compound `O=C(Nc1ccc(-c2cc3cc(F)c(-c4nnn[nH]4)cc3n2C2CCC2)cc1)C(=O)Nc1ccc(N2CCC3(CCOC3)CC2)cc1` [Example 67], the inhibition at 10 µM was 16.9%.

One may read the inhibition as the drop in the measured response relative to a control, in per cent.

The record behind these values is EP4741383A1, “COMPOUND AND USE THEREOF AS ANTI-CANCER DRUG” (Tyligand Bioscience (Shanghai) Limited, priority 2023, dated 2025).
